# Data: patent US20060069132A1, “Azolecarboxamide herbicides” (priority 2004, published 2006)
# Where two headings read alike, the source gives them in different places.
# What was measured:
# barnyardgrass [1] = test: Test B pre-/postemergence herbicide test; type: in vivo, Echinochloa crus-galli; conditions: Echinochloa crus-galli; for pest or weed control at 500 g/ha: 500 g ai/ha; for pest or weed control at 125 g/ha: 125 g ai/ha
# Method in brief: (§1)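 Visual rating, 0 (no effect) to 100 (complete control), versus untreated controls after 13–15 d in greenhouse. Pre- and postemergence applications (postemergence plants 2–18 cm, 1–4 leaves); flooded paddy arm at 2-leaf stage. Compounds in non-phytotoxic solvent plus surfactant.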
# Surinam grass = test: Test B pre-/postemergence herbicide test; type: in vivo, Urochloa decumbens; conditions: Urochloa decumbens; for pest or weed control at 125 g/ha: 125 g ai/ha
# Method in brief: (§2)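 Seeds were planted and treated preemergence with compounds formulated in a non-phytotoxic solvent mixture containing surfactant, while plants at the 1- to 4-leaf stage (2 to 18 cm) received postemergence sprays. Flooded paddy plants were grown to the 2-leaf stage. After 13 to 15 days in a greenhouse, injury was visually rated 0–100 against untreated controls.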
# cocklebur = test: Test B pre-/postemergence herbicide test; type: in vivo, Xanthium strumarium; conditions: Xanthium strumarium; for pest or weed control at 500 g/ha: 500 g ai/ha; for pest or weed control at 125 g/ha: 125 g ai/ha
# Method in brief: as §1
# corn = test: Test B pre-/postemergence herbicide test; type: in vivo, Zea mays; conditions: Zea mays
# Method in brief: as §2
# large crabgrass = test: Test B pre-/postemergence herbicide test; type: in vivo, Digitaria sanguinalis; conditions: Digitaria sanguinalis; for pest or weed control at 500 g/ha: 500 g ai/ha; for pest or weed control at 125 g/ha: 125 g ai/ha
# Method in brief: as §2
# giant foxtail = test: Test B pre-/postemergence herbicide test; type: in vivo, Setaria faberi; conditions: Setaria faberi, 336 h; for pest or weed control at 500 g/ha: 500 g ai/ha; for pest or weed control at 125 g/ha: 125 g ai/ha
# Method in brief: as §2
# lambsquarters = test: Test B pre-/postemergence herbicide test; type: in vivo, Chenopodium album; conditions: Chenopodium album, 336 h; for pest or weed control at 125 g/ha: 125 g ai/ha
# Method in brief: as §2
# morningglory = test: Test B pre-/postemergence herbicide test; type: in vivo, Ipomoea coccinea; conditions: Ipomoea, 336 h; for pest or weed control at 125 g/ha: 125 g ai/ha
# Method in brief: as §1
# pigweed = test: Test B pre-/postemergence herbicide test; type: in vivo, Amaranthus retroflexus; conditions: Amaranthus retroflexus, 336 h; for pest or weed control at 125 g/ha: 125 g ai/ha
# Method in brief: as §2
# velvetleaf = test: Test B pre-/postemergence herbicide test; type: in vivo, Abutilon theophrasti; conditions: Abutilon theophrasti, 336 h; for pest or weed control at 125 g/ha: 125 g ai/ha
# Method in brief: as §2
# wheat = test: Test B postemergence herbicide test; type: in vivo, Triticum aestivum; conditions: scale 0 (no effect) to 100 (complete control)
# Method in brief: (§3)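 Plants grow to 1- to 4-leaf stage (2–18 cm) for postemergence spraying, or to 2-leaf stage for the paddy test. Formulated compound is applied. Greenhouse holding lasts 13–15 days. Response is scored visually relative to controls, 0 no effect to 100 complete control; a dash means no result.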
# wild oat = test: Test B postemergence herbicide test; type: in vivo, Avena fatua; conditions: scale 0 (no effect) to 100 (complete control)
# Method in brief: as §3
# rice = test: Test B flooded paddy test; type: in vivo, Oryza sativa; conditions: Oryza sativa, 336 h, 1000 g ai/ha, visual rating, scale 0 to 100 (0 no effect, 100 complete control), 13 to 15 days, read-out: Rice plant response rating
# Method in brief: (§4)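 Visual ratings, 0 (no effect) to 100 (complete control), made versus controls after 13–15 d greenhouse. Paddy plants treated at 2-leaf stage; postemergence plants at 1- to 4-leaf stage, 2–18 cm tall.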
# ducksalad = test: Test B flooded paddy test; type: in vivo, Heteranthera limosa; conditions: Heteranthera limosa, 336 h, 1000 g ai/ha, visual rating, scale 0 to 100 (0 no effect, 100 complete control), 13 to 15 days, read-out: Ducksalad plant response rating
# Method in brief: as §4
# barnyardgrass [2] = test: Test B flooded paddy test; type: in vivo, Echinochloa crus-galli; conditions: Echinochloa crus-galli, 336 h, 1000 g ai/ha, visual rating, scale 0 to 100 (0 no effect, 100 complete control), 13 to 15 days, read-out: Barnyardgrass plant response rating
# Method in brief: as §4
# [3] = Postemergence, 500 g ai/ha, visual rating after 13 to 15 days
compound,measurement,setting,value
"CCOC(=O)c1cccc(NC(=O)c2cc(C(C)(C)C)nn2CC)c1 [Compound 80, ethyl 3-[[[3-(1,1-dimethylethyl)-1-ethyl-1H-pyrazol-5-yl]carbonyl]-amino]benzoate]",pest or weed control at 500 g/ha,"barnyardgrass [1]; post-emergence, Postemergence, visual rating after 13 to 15 days, scale 0 (no effect) to 100 (complete control), read-out: Plant response rating, Barnyardgrass",90%
same,pest or weed control at 125 g/ha,"barnyardgrass [1]; post-emergence, postemergence, visual rating, scale 0 (no effect) to 100 (complete control), read-out: Barnyardgrass plant response rating",80%
same,pest or weed control at 500 g/ha,"barnyardgrass [1]; pre-emergence, Preemergence, scale 0 to 100, read-out: Barnyardgrass plant response rating",20%
same,pest or weed control at 125 g/ha,"barnyardgrass [1]; pre-emergence, preemergence, 0 to 100 scale, 0 is no effect, 100 is complete control, read-out: Plant response rating, Barnyardgrass",0%
same,pest or weed control at 500 g/ha,"Surinam grass; post-emergence, Postemergence, 500 g ai/ha, visual rating after 13 to 15 days, scale 0 (no effect) to 100 (complete control), read-out: Plant response rating, Surinam Grass",90%
same,pest or weed control at 125 g/ha,"Surinam grass; post-emergence, postemergence, visual rating, scale 0 (no effect) to 100 (complete control), read-out: Surinam Grass plant response rating",90%
same,pest or weed control at 125 g/ha,"Surinam grass; pre-emergence, preemergence, 0 to 100 scale, 0 is no effect, 100 is complete control, read-out: Plant response rating, Surinam Grass",0%
same,pest or weed control at 500 g/ha,"cocklebur; post-emergence, Postemergence, visual rating after 13 to 15 days, scale 0 (no effect) to 100 (complete control), read-out: Plant response rating, Cocklebur",100%
same,pest or weed control at 125 g/ha,"cocklebur; post-emergence, postemergence, visual rating, scale 0 (no effect) to 100 (complete control), read-out: Cocklebur plant response rating",70%
same,pest or weed control at 500 g/ha,"cocklebur; pre-emergence, Preemergence, scale 0 to 100, read-out: Cocklebur plant response rating",0%
same,pest or weed control at 125 g/ha,"cocklebur; pre-emergence, preemergence, 0 to 100 scale, 0 is no effect, 100 is complete control, read-out: Plant response rating, Cocklebur",0%
same,"Corn plant response rating (crop injury, 0 = no effect, 100 = complete kill) at 500 g/ha","corn; post-emergence, Postemergence, 500 g ai/ha, visual rating after 13 to 15 days, scale 0 (no effect) to 100 (complete control)",50%
same,plant injury at 125 g/ha,"corn; post-emergence, postemergence, 125 g ai/ha, visual rating, scale 0 (no effect) to 100 (complete control), read-out: Corn plant response rating",20%
same,plant injury at 500 g/ha,"corn; pre-emergence, Preemergence, 500 g ai/ha, scale 0 to 100, read-out: Corn plant response rating",10%
same,"Corn plant response rating (crop injury, 0 = no effect, 100 = complete kill) at 125 g/ha","corn; pre-emergence, preemergence, 125 g ai/ha, 0 to 100 scale, 0 is no effect, 100 is complete control",0%
same,pest or weed control at 500 g/ha,"large crabgrass; post-emergence, Postemergence, visual rating after 13 to 15 days, scale 0 (no effect) to 100 (complete control), read-out: Plant response rating, Crabgrass, Large",100%
same,pest or weed control at 125 g/ha,"large crabgrass; post-emergence, postemergence, visual rating, scale 0 (no effect) to 100 (complete control), read-out: Crabgrass, Large plant response rating",100%
same,pest or weed control at 500 g/ha,"large crabgrass; pre-emergence, Preemergence, scale 0 to 100, read-out: Crabgrass, Large plant response rating",0%
same,pest or weed control at 125 g/ha,"large crabgrass; pre-emergence, preemergence, 0 to 100 scale, 0 is no effect, 100 is complete control, read-out: Plant response rating, Crabgrass, Large",0%
same,pest or weed control at 500 g/ha,"giant foxtail; post-emergence, Postemergence, visual rating after 13 to 15 days, scale 0 (no effect) to 100 (complete control), read-out: Plant response rating, Foxtail, Giant",90%
same,pest or weed control at 125 g/ha,"giant foxtail; post-emergence, postemergence, visual rating, scale 0 (no effect) to 100 (complete control), read-out: Foxtail, Giant plant response rating",50%
same,pest or weed control at 500 g/ha,"giant foxtail; pre-emergence, Preemergence, scale 0 to 100, read-out: Foxtail, Giant plant response rating",70%
same,pest or weed control at 125 g/ha,"giant foxtail; pre-emergence, preemergence, 0 to 100 scale, 0 is no effect, 100 is complete control, read-out: Plant response rating, Foxtail, Giant",20%
same,pest or weed control at 500 g/ha,"lambsquarters; post-emergence, Postemergence, 500 g ai/ha, visual rating after 13 to 15 days, scale 0 (no effect) to 100 (complete control), read-out: Plant response rating, Lambsquarters",80%
same,pest or weed control at 125 g/ha,"lambsquarters; post-emergence, postemergence, visual rating, scale 0 (no effect) to 100 (complete control), read-out: Lambsquarters plant response rating",70%
same,pest or weed control at 125 g/ha,"lambsquarters; pre-emergence, preemergence, 0 to 100 scale, 0 is no effect, 100 is complete control, read-out: Plant response rating, Lambsquarters",0%
same,pest or weed control at 500 g/ha,"morningglory; post-emergence, Postemergence, 500 g ai/ha, visual rating after 13 to 15 days, scale 0 (no effect) to 100 (complete control), read-out: Plant response rating, Morningglory",100%
same,pest or weed control at 125 g/ha,"morningglory; post-emergence, postemergence, visual rating, scale 0 (no effect) to 100 (complete control), read-out: Morningglory plant response rating",100%
same,pest or weed control at 125 g/ha,"morningglory; pre-emergence, preemergence, 0 to 100 scale, 0 is no effect, 100 is complete control, read-out: Plant response rating, Morningglory",0%
same,pest or weed control at 500 g/ha,"pigweed; post-emergence, Postemergence, 500 g ai/ha, visual rating after 13 to 15 days, scale 0 (no effect) to 100 (complete control), read-out: Plant response rating, Pigweed",100%
same,pest or weed control at 125 g/ha,"pigweed; post-emergence, postemergence, visual rating, scale 0 (no effect) to 100 (complete control), read-out: Pigweed plant response rating",100%
same,pest or weed control at 125 g/ha,"pigweed; pre-emergence, preemergence, 0 to 100 scale, 0 is no effect, 100 is complete control, read-out: Plant response rating, Pigweed",0%
same,pest or weed control at 500 g/ha,"velvetleaf; post-emergence, Postemergence, 500 g ai/ha, visual rating after 13 to 15 days, scale 0 (no effect) to 100 (complete control), read-out: Plant response rating, Velvetleaf",100%
same,pest or weed control at 125 g/ha,"velvetleaf; post-emergence, postemergence, visual rating, scale 0 (no effect) to 100 (complete control), read-out: Velvetleaf plant response rating",90%
same,pest or weed control at 125 g/ha,"velvetleaf; pre-emergence, preemergence, 0 to 100 scale, 0 is no effect, 100 is complete control, read-out: Plant response rating, Velvetleaf",20%
same,"Plant response rating, Wheat",wheat; [3],30
same,plant injury at 125 g/ha,"wheat; Triticum aestivum, post-emergence, 336 h, postemergence, 125 g ai/ha, visual rating, read-out: Wheat plant response rating",20%
same,pest or weed control at 125 g/ha,"wild oat; Avena fatua, post-emergence, 336 h, postemergence, 125 g ai/ha, visual rating, read-out: Oat, Wild plant response rating",30%
same,"Plant response rating, Oat, Wild",wild oat; [3],50
same,plant injury at 1000 g/ha,rice,60%
same,pest or weed control at 1000 g/ha,ducksalad,90%
same,pest or weed control at 1000 g/ha,barnyardgrass [2],80%
